1 sequence from patent US11426441B2, “Composition comprising protein phosphatase 1 inhibitory peptide for treating vascular diseases” (BethphaGen Inc., priority 2016, dated 2022) can be followed below.

No end group written: not given here.

In assay [1] the test system is SERCA2a. Description: A23187-induced SERCA2a degradation in HCSMCs. In kind it is cell-based, human. The following applies: HCSMCs pretreated 1 hour with 3 μM ψPLB-SE or 15 μM MDL28170, then 50 μM A23187 2 hours. The protocol: FIGS. 4a, 4b, 4c and 4d. (4a-4c) HCSMCs were pretreated with 3 μM ψPLB-SE and 15 μM MDL28170 for 1 hour, and then treated with 50 μM A23187 for 2 hours. (4a) Immunostaining was performed with antibodies against SERCA2a and SERCA2b (green). Nuclei were stained with Hoechst (blue). Representative merged images are shown. Scale bar, 50 μm. (4b) Western blot analysis was performed with cell extracts. Data are expressed as the means±SD (n=3-4; *, P<0.05). (4c) Baseline Ca^2+ concentration was measured by lonOptix calcium imaging system. (4d) RASMC were treated with ψPLB-SE or control peptide under the same conditions as described for FIG. 1B. The baseline Ca^2+ concentration was measured by lonOptix calcium imaging system (*, P<0.05).
(§1) The rat aortic smooth muscle cells (RASMCs) were isolated from the medial layer of the thoracic aorta derived from male Sprague-Dawley rats (body weight, 180-200 g) by an enzymatic reaction with collagenase (50 U/mL, Worthington) and pancreatic elastase (0.25 mg/mL, Sigma-Aldrich) for 4 hours at 37. The cells were collected and resuspended in DMEM containing 20% (v/v) fetal bovine serum. The resuspension was then plated on collagen I (Sigma-Aldrich)-coated glass coverslips and incubated at 37 in an atmosphere of 5% (v/v) CO2 and 95% (v/v) air. Human coronary smooth muscle cells (HCSMCs), pulmonary arterial endothelial cells (PAECs), and pulmonary arterial smooth muscle cells (PASMCs) were purchased from Lonza and cultured in EBM or SmBM (Lonza) supplemented with 0.5 mg/mL hEGF, […], 1 mg/mL hFGF, […] gentamicin/amphotericin-B, and 5% fetal bovine serum. All the cells were cultured at 37 in 5% (v/v) CO2 and 95% (v/v) air. RASMCs and HCSMCs were, respectively, plated at the densities of 1×10^4 cells/cm^2 and 1×10^5 cells/cm^2 for immunostaining and western blotting experiments. […]
(§2) Vascular smooth muscle cells (VSMCs) were homogenized in a minimal volume of 50 mM Tris-HCl, pH 7.4, supplemented with a broad-spectrum protease inhibitor cocktail (Calbiochem). […] The blots were scanned and quantified using LAS software.

The test system of assay [2] is monocrotaline (MCT)-induced pulmonary arterial hypertension mice. The experiment in a line: Monocrotaline-induced pulmonary arterial hypertension in mice. It counts as in vivo, mouse. The method, then: Vascular smooth muscle cells (VSMCs) were homogenized in a minimal volume of 50 mM Tris-HCl, pH 7.4, supplemented with a broad-spectrum protease inhibitor cocktail (Calbiochem). The proteins were separated by SDS-PAGE and then transferred to polyvinylidene fluoride membranes (Schleicher & Schuell). After blocking with 5% (w/v) non-fat milk for 1 hour and washing with TBST, the membranes were incubated with antibodies against SERCA2a, SERCA2b (21st century biochemical), PCNA (abcam), GAPDH (Sigma-Aldrich), phospho-eNOS, eNOS, phospho-eIF2α, eIF2α (cell signaling), Vimentin, α-SMA, BMPR2 (Santa cruz), phospho-Akt, Akt (cell signaling), phospho-phospholamban (Merck), and Phospholamban (cell signaling). The membranes were then incubated with horseradish peroxidase-conjugated secondary antibodies (Jackson ImmunoResearch, West Grove, Pa., USA) and developed using a chemiluminescent substrate (Dogen). The blots were scanned and quantified using LAS software.
As for mice, fifteen C57BL/6 mice (Damool science, Korea) weighing 25-30 g were treated with 600 mg/kg MCT five times a week. Out of the mice, eight animals for a comparison group were administered with ψPLB-SE peptide four times at intervals of one week from day 15 after the administration of MCT. Five animals for a control group were administered with a control peptide. The mice were sacrificed one week after last administration, and then histological analysis and molecular biological experiments were conducted.
Pulmonary tissues were taken from animal models, fixed with 4% (w/v) paraformaldehyde for 5 days at room temperature, and then washed with PBS. After embedding the specimens in paraffin and sectioning the tissue blocks into a thickness of 7 μm, the sections were stained with haematoxylin and eosin (Sigma Aldrich) to investigate the vascular thickness and inflammation, and the sections were stained with Masson-trichrome (Sigma Aldrich) to investigate the extent of perivascular fibrosis, and then observed through an optical microscope.
The pulmonary tissues were obtained from rats and mice, and the cytokine levels in the tissues were quantitatively analyzed using human proinflammatory 10plex Meso Scale Diagnostics plates (MSD; Rockville, Md.).
Quantitative RT-PCR was performed using SYBR premix Ex Taq™ (Takara), though which the transcriptional levels of target genes were analyzed. RNA was isolated from pulmonary tissues using trizole (ambion), and synthesized into cDNA. Quantitative RT-PCR conditions were 40 cycles: 10 sec at 94° C., 30 sec at 59° C., and 10 sec at 72° C.

Assay [3] deals with SERCA2a. Description: Calcium uptake assay (SERCA2a activity) in PASMCs. In kind it is biochemical. The following applies: synthetic phenotype, 3 μM. The method, then:
Pulmonary arterial smooth muscle cells (PASMCs) were homogenized in a solution of pH 7.0 containing 40 mM imidazole, 10 mM NaF, 1 mM EDTA, 300 mM sucrose, and 0.5 mM DTT, and 250 μg of the lysate was added to an uptake buffer of pH 7.0 containing 100 mM KCl, 5 mM MgCl2, 5 mM NaN3, […], and 40 mM imidazole, and calcium uptake assay was performed with a calcium concentration of pCa 6, containing radioactive isotopes. The cells were treated with 1 μM ruthenium red (Sigma Aldrich), followed by waiting at 37° C. for 3 min, and then treated with 5 mM K-oxalate and Mg-ATP (Sigma Aldrich). In addition, 500 μl of the reaction material was filtered out through a 0.45 μm filter (Millipore) from the start of a reaction to 4 minutes at intervals of 1 minute, and cpm (count per minute) was measured using a scintillation counter (Beckman).

The test system of assay [4] is pulmonary arterial smooth muscle cells (PASMCs). Description: PASMC proliferation (PCNA western blotting, cell proliferation assay). In kind it is cell-based. The settings on record: synthetic phenotype induction. The protocol:
FIGS. 19a and 19b. […] (19a) Protein expression was quantitatively analyzed through western blotting using antibodies against PCNA and GAPDH 12 and 24 hours after the treatment. (19b) Cell proliferation assay was performed using EZ-CyTox cell viability assay kit.
as §1, with “serum.” for “serum. All the cells were cultured at 37 in 5% (v/v) CO2 and 95% (v/v) air. RASMCs and HCSMCs were, respectively, plated at the densities of 1×10^4 cells/cm^2 and 1×10^5 cells/cm^2 for immunostaining and western blotting experiments.”
as §2

With “RAETIEMPQ (not fully specified) [ψPLB-SE, 9-mer PP1 decoy peptide mimicking phosphorylated PLB; conjugated via GGG linker to cell penetrating peptide dNP2 or TAT]”, the “A23187 (Ca^2+)-dependent degradation of SERCA2a” value in assay [1] is given as “completely inhibited”. In assay [2] (mouse pulmonary tissue), the “expression level of SERCA2a” value is on record as “increased”; the “fibrosis extent of vascular adventitia (Masson-trichrome staining)” value was “attenuated”; the “increases in the protein and mRNA expression of TGF-β, Collagen 1, vimentin, and α-SMA” value is “attenuated”; the “proinflammatory cytokines (GM-CSF, TNF-α, IL-17, IL-1β, IL-6, TGF-β) levels” value was “restored to nearly to the normal levels”. Also, in assay [2] (mouse pulmonary tissue proteins), the “eNOS phosphorylation level (eNOS activity)” value was “increased”. For the same sequence, the “increase in vascular thickening (hematoxylin and eosin staining)” value in assay [2] (mouse pulmonary tissue, MCT 600 mg/kg, peptide via respiratory inhalation once a week for 4 weeks from the second week) is “attenuated”. Further, the “increase in monocyte infiltration” value in assay [2] (mouse pulmonary tissue, hematoxylin and eosin staining) is recorded as “attenuated”. The “mRNA expression levels of TNF-α, IL-17, IL-1β, F4/80, and MCP-1” value in assay [2] (mouse pulmonary tissue, quantitative RT-PCR) is “reduced”. For the same sequence, the “SERCA2a activity (Ca^2+ uptake assay)” value in assay [3] is “restored”. In assay [4], the “cell proliferation (cell proliferation assay)” value is “inhibiting cell proliferation” and the “expression of PCNA” value is listed as “attenuated”.
